Measured values published in ChEMBL document CHEMBL3390848, “Affinity selection and sequence-activity relationships of HIV-1 membrane fusion inhibitors directed at the drug-resistant variants” (Medchemcomm, 2010).
Residues, ends and D or L forms follow the SMILES beside them.

Key:
[1] = tested on: Human immunodeficiency virus 1; assay: Antiviral activity against HIV1 NL4-3 harboring gp41 D36G mutant infected in human HeLa cells expressing CD4-LTR-beta-gal assessed as inhibition of viral replication after 48 hrs by MAGI assay; format: functional, organism-based
[2] = tested on: Human immunodeficiency virus 1; assay: Binding affinity to HIV1 His-tagged N-terminal heptad repeat of envelope glycoprotein gp41 assessed as recovery of N54-drug complex after 2 hrs by LC-MS analysis; set-up: concentration or dose not given beside the values
[3] = tested on: Human immunodeficiency virus 1; assay: Thermal stability of HIV1 envelope glycoprotein gp41 His-tagged N-terminal heptad repeat N54-drug complex assessed as thermal unfolding transition state by measuring molar ellipticity at 4 to 90 degC by circular dichroic spectra analysis

Structure (SMILES) | EC50 [1] | Activity [2] | Tm [3]
CC[C@H](C)[C@H](NC(=O)[C@H](CC(C)C)NC(=O)[C@H](CCC(=O)O)NC(=O)[C@H](CCC(=O)O)NC(=O)[C@@H](NC(=O)[C@H](CC(C)C)NC(=O)[C@H](CO)NC(=O)[C@@H](NC(=O)[C@H](Cc1ccc(O)cc1)NC(C)=O)[C@@H](C)O)[C@@H](C)CC)C(=O)N[C@@H](CCCCN)C(=O)N[C@@H](CCCCN)C(=O)N[C@@H](CO)C(=O)N[C@@H](CCC(=O)O)C(=O)N[C@@H](CCC(=O)O)C(=O)N[C@H](C(=O)N[C@@H](CCC(N)=O)C(=O)N[C@@H](CCCCN)C(=O)N[C@@H](CCCCN)C(=O)N[C@@H](CC(N)=O)C(=O)N[C@@H](CCC(=O)O)C(=O)N[C@@H](CCC(=O)O)C(=O)N[C@@H](CCC(=O)O)C(=O)N[C@@H](CC(C)C)C(=O)N[C@@H](CCCCN)C(=O)N[C@@H](CCCCN)C(=O)N[C@@H](CC(C)C)C(=O)N[C@@H](CCC(=O)O)C(=O)N[C@@H](CCC(=O)O)C(=O)N[C@@H](Cc1c[nH]c2ccccc12)C(=O)N[C@@H](C)C(=O)N[C@@H](CCCCN)C(=O)N[C@@H](CCCCN)C(=O)N[C@@H](Cc1c[nH]c2ccccc12)C(=O)N[C@@H](CC(N)=O)C(=O)N[C@@H](Cc1c[nH]c2ccccc12)C(=O)N[C@@H](Cc1ccccc1)C(N)=O)C(C)C (Ac-YTSLIEELIKKSEEVQKKNEEELKKLEEWAKKWNWF-NH2) | 2.9 nM | 6.1% | 70.5 °C
CC[C@H](C)[C@H](NC(=O)[C@H](CC(C)C)NC(=O)[C@H](CCC(=O)O)NC(=O)[C@H](CCC(=O)O)NC(=O)[C@@H](NC(=O)[C@H](CC(C)C)NC(=O)[C@H](CO)NC(=O)[C@@H](NC(=O)[C@H](Cc1ccc(O)cc1)NC(C)=O)[C@@H](C)O)[C@@H](C)CC)C(=O)N[C@@H](CCCCN)C(=O)N[C@@H](CCCCN)C(=O)N[C@@H](CCCCN)C(=O)N[C@@H](CCC(=O)O)C(=O)N[C@@H](CCC(=O)O)C(=O)N[C@@H](CCC(N)=O)C(=O)N[C@@H](CCC(N)=O)C(=O)N[C@@H](CCCCN)C(=O)N[C@@H](CCCCN)C(=O)N[C@@H](CC(N)=O)C(=O)N[C@@H](CCC(=O)O)C(=O)N[C@@H](CCC(=O)O)C(=O)N[C@@H](CCC(=O)O)C(=O)N[C@@H](CC(C)C)C(=O)N[C@@H](CCCCN)C(=O)N[C@@H](CCCCN)C(=O)N[C@@H](CC(C)C)C(=O)N[C@@H](CCC(=O)O)C(=O)N[C@@H](CCC(=O)O)C(=O)N[C@@H](Cc1c[nH]c2ccccc12)C(=O)N[C@@H](C)C(=O)N[C@@H](CCCCN)C(=O)N[C@@H](CCCCN)C(=O)N[C@@H](Cc1c[nH]c2ccccc12)C(=O)N[C@@H](CC(N)=O)C(=O)N[C@@H](Cc1c[nH]c2ccccc12)C(=O)N[C@@H](Cc1ccccc1)C(N)=O (Ac-YTSLIEELIKKKEEQQKKNEEELKKLEEWAKKWNWF-NH2) | 330 nM | 0.8% | 50.6 °C
CC[C@H](C)[C@H](NC(=O)[C@H](CC(C)C)NC(=O)[C@H](CCC(=O)O)NC(=O)[C@H](CCC(=O)O)NC(=O)[C@@H](NC(=O)[C@H](CC(C)C)NC(=O)[C@H](CO)NC(=O)[C@@H](NC(=O)[C@H](Cc1ccc(O)cc1)NC(C)=O)[C@@H](C)O)[C@@H](C)CC)C(=O)N[C@@H](CCCCN)C(=O)N[C@@H](CCCCN)C(=O)N[C@@H](CO)C(=O)N[C@@H](CCC(=O)O)C(=O)N[C@@H](CCC(=O)O)C(=O)N[C@@H](CC(=O)O)C(=O)N[C@@H](CCC(N)=O)C(=O)N[C@@H](CCCCN)C(=O)N[C@@H](CCCCN)C(=O)N[C@@H](CC(N)=O)C(=O)N[C@@H](CCC(=O)O)C(=O)N[C@@H](CCC(=O)O)C(=O)N[C@@H](CCC(=O)O)C(=O)N[C@@H](CC(C)C)C(=O)N[C@@H](CCCCN)C(=O)N[C@@H](CCCCN)C(=O)N[C@@H](CC(C)C)C(=O)N[C@@H](CCC(=O)O)C(=O)N[C@@H](CCC(=O)O)C(=O)N[C@@H](Cc1c[nH]c2ccccc12)C(=O)N[C@@H](C)C(=O)N[C@@H](CCCCN)C(=O)N[C@@H](CCCCN)C(=O)N[C@@H](Cc1c[nH]c2ccccc12)C(=O)N[C@@H](CC(N)=O)C(=O)N[C@@H](Cc1c[nH]c2ccccc12)C(=O)N[C@@H](Cc1ccccc1)C(N)=O (Ac-YTSLIEELIKKSEEDQKKNEEELKKLEEWAKKWNWF-NH2) | 3.5 nM | 8.2% | 71.4 °C
CC[C@H](C)[C@H](NC(=O)[C@H](CC(C)C)NC(=O)[C@H](CCC(=O)O)NC(=O)[C@H](CCC(=O)O)NC(=O)[C@@H](NC(=O)[C@H](CC(C)C)NC(=O)[C@H](CO)NC(=O)[C@@H](NC(=O)[C@H](Cc1ccc(O)cc1)NC(C)=O)[C@@H](C)O)[C@@H](C)CC)C(=O)N[C@@H](CCCCN)C(=O)N[C@@H](CCCCN)C(=O)N[C@@H](CCC(N)=O)C(=O)N[C@@H](CCC(=O)O)C(=O)N[C@@H](CCC(=O)O)C(=O)N[C@@H](CCC(N)=O)C(=O)N[C@@H](CCC(N)=O)C(=O)N[C@@H](CCCCN)C(=O)N[C@@H](CCCCN)C(=O)N[C@@H](CC(N)=O)C(=O)N[C@@H](CCC(=O)O)C(=O)N[C@@H](CCC(=O)O)C(=O)N[C@@H](CCC(=O)O)C(=O)N[C@@H](CC(C)C)C(=O)N[C@@H](CCCCN)C(=O)N[C@@H](CCCCN)C(=O)N[C@@H](CC(C)C)C(=O)N[C@@H](CCC(=O)O)C(=O)N[C@@H](CCC(=O)O)C(=O)N[C@@H](Cc1c[nH]c2ccccc12)C(=O)N[C@@H](C)C(=O)N[C@@H](CCCCN)C(=O)N[C@@H](CCCCN)C(=O)N[C@@H](Cc1c[nH]c2ccccc12)C(=O)N[C@@H](CC(N)=O)C(=O)N[C@@H](Cc1c[nH]c2ccccc12)C(=O)N[C@@H](Cc1ccccc1)C(N)=O (Ac-YTSLIEELIKKQEEQQKKNEEELKKLEEWAKKWNWF-NH2) | 7.9 nM | 2.2% | 60 °C
CC[C@H](C)[C@H](NC(=O)[C@H](CC(C)C)NC(=O)[C@H](CCC(=O)O)NC(=O)[C@H](CCC(=O)O)NC(=O)[C@@H](NC(=O)[C@H](CC(C)C)NC(=O)[C@H](CO)NC(=O)[C@@H](NC(=O)[C@H](Cc1ccc(O)cc1)NC(C)=O)[C@@H](C)O)[C@@H](C)CC)C(=O)N[C@@H](CCCCN)C(=O)N[C@@H](CCCCN)C(=O)N[C@@H](CO)C(=O)N[C@@H](CCC(=O)O)C(=O)N[C@@H](CCC(=O)O)C(=O)N[C@@H](CC(C)C)C(=O)N[C@@H](CCC(N)=O)C(=O)N[C@@H](CCCCN)C(=O)N[C@@H](CCCCN)C(=O)N[C@@H](CC(N)=O)C(=O)N[C@@H](CCC(=O)O)C(=O)N[C@@H](CCC(=O)O)C(=O)N[C@@H](CCC(=O)O)C(=O)N[C@@H](CC(C)C)C(=O)N[C@@H](CCCCN)C(=O)N[C@@H](CCCCN)C(=O)N[C@@H](CC(C)C)C(=O)N[C@@H](CCC(=O)O)C(=O)N[C@@H](CCC(=O)O)C(=O)N[C@@H](Cc1c[nH]c2ccccc12)C(=O)N[C@@H](C)C(=O)N[C@@H](CCCCN)C(=O)N[C@@H](CCCCN)C(=O)N[C@@H](Cc1c[nH]c2ccccc12)C(=O)N[C@@H](CC(N)=O)C(=O)N[C@@H](Cc1c[nH]c2ccccc12)C(=O)N[C@@H](Cc1ccccc1)C(N)=O (Ac-YTSLIEELIKKSEELQKKNEEELKKLEEWAKKWNWF-NH2) | 0.5 nM | 10.4% | 77.4 °C
